# Measurements reported in a melting point compilation (Tetko et al.).
row,SMILES,melting point
1,N#Cc1cc([N+](=O)[O-])ccc1S(=O)(=O)Cl,99 to 101 °C
2,O=C(O)CCc1nc2sc3c(c2c(=O)[nH]1)CCCC3,140 to 142 °C
3,Cc1ccc(NC(=O)CN(C)C(=O)CCl)cc1,145 to 147 °C
4,COc1cc(Br)cc(F)c1C#N,75 to 77 °C
5,O=C(O)C1=NN(c2nc3ccccc3[nH]2)C(=O)CC1,328 to 330 °C
6,N#Cc1cc(Cl)ccc1N=C=O,71 to 75 °C
7,CC(=O)Nc1ccc2c(c1)CN(C(=O)OC(C)(C)C)CC2,110 to 112 °C
8,Cc1n[nH]c(C2CNCCO2)n1 (stereo unspecified),104 to 106 °C
9,O=C(O)c1cc(-c2cccc(F)c2)no1,189 to 191 °C
10,O=C(Nc1ccccc1C(=O)O)c1ccccc1I,204 to 206 °C
11,Cc1ccc(-c2csc(=O)[nH]2)cc1,219 to 221 °C
12,CNC(C(=O)O)c1ccccc1C(F)(F)F (stereo unspecified),290 to 292 °C
13,CCC(C)(C)C1CCc2c(sc(NC(=O)CCl)c2C#N)C1 (stereo unspecified),100 to 102 °C
14,CCOC(=O)c1noc(-c2cccc(F)c2-n2ccnc2)n1,128 to 130 °C
15,CCc1ccc(S(=O)(=O)O)cc1N,268 to 270 °C
16,O=C(O)c1ccc(-c2nc(C3CC3)n[nH]2)cc1,237 to 239 °C
17,CCC(CC)n1ncc(C(=O)O)c1C,154 to 156 °C
18,CCOc1ccc2nc(NS(=O)(=O)c3cc(C(=O)O)c(Cl)cc3Cl)sc2c1,163 to 165 °C
19,COC(=O)Cn1cnc(N)n1,136 to 138 °C
20,O=C1C(Br)CCCN1c1ccccc1 (stereo unspecified),80 to 82 °C
21,Cc1cncc(CCC(=O)O)c1,99 to 101 °C
22,Cc1nc(N)sc1Cc1cccc(Br)c1,86 to 88 °C
23,Cn1ccc(C(=O)N2CCC[C@H]2C(=O)O)cc1=O,149 to 151 °C
24,Clc1ccnc2cc(Br)ccc12,99 to 101 °C

row,SMILES,melting point
1,CN1C(=O)CC(C(=O)O)C1c1ccc(C(F)(F)F)cc1 (stereo unspecified),145 to 147 °C
2,CC(C)(C)OC(=O)NCCCn1ccc2cc(C(=O)O)ccc21,172 to 174 °C
3,O=C(O)CNCC1CC1,222 to 224 °C
4,c1ccc(-c2nnc3n2CCNC3)cc1,159 to 161 °C
5,NS(=O)(=O)c1ccc(CCNS(=O)(=O)c2cccc(C(=O)O)c2)cc1,226 to 228 °C
6,Cc1nnc(CCl)s1,76 to 78 °C
7,COc1ccc(Cc2nnc(S)n2N)cc1OC,177 to 179 °C
8,Cc1ccc(-n2nnc(CC(=O)O)c2C)cc1,194 to 196 °C
9,C#CCOc1ccccc1O,48 to 50 °C
10,CC(C)(C)OC(=O)N1CCC(C(=O)O)C1 (stereo unspecified),134 to 136 °C
11,CC(C)n1c(S)nnc1N(C)C,127 to 129 °C
12,O=Cc1cccc(Cl)c1O,52 to 54 °C
13,O=C(O)c1ccc(N2CCCCC2)c(S(=O)(=O)N2CCCCC2)c1,196 to 198 °C
14,CN(C)c1ncncc1N,97 to 99 °C
15,O=c1ccccn1CCBr,126 to 128 °C
16,Nc1ccc(CC(=O)N2CCCc3ccccc32)cc1,141 to 143 °C
17,Cc1cc(C)cc(-n2nnnc2S)c1,164 to 166 °C
18,CN(C)C(=O)c1ccc(Cl)c(S(N)(=O)=O)c1,130 to 132 °C
19,O=C(O)C1CC(=O)N(c2cccc(Br)c2)C1 (stereo unspecified),142 to 144 °C
20,Cc1n[nH]c(N)c1-c1ccc2c(c1)OCCO2,120 to 122 °C
21,NNC(=O)CC1CCS(=O)(=O)C1 (stereo unspecified),104 to 106 °C
22,C=CCC(NC(C)=O)C(=O)O (stereo unspecified),114 to 116 °C
23,Cc1ccc2cc(CCl)c(Cl)nc2c1C,109 to 111 °C
24,O=c1[nH]c(CCl)nc2ccc(Cl)cc12,249 to 251 °C

row,SMILES,melting point
1,CS(=O)(=O)N1CCc2ccccc2C1CC(=O)O (stereo unspecified),126 to 128 °C
2,OCCc1nc2ccccc2s1,40 to 44 °C
3,OCCOc1ccc(Br)cc1,53 to 55 °C
4,Cc1ccc(NC(=O)NN)c(Cl)c1,132 to 134 °C
5,Nc1ccc(S(=O)(=O)NCc2ccc(F)cc2)cc1,136 to 138 °C
6,O=[N+]([O-])c1ccc(N2CCC(CO)CC2)nc1,123 to 125 °C
7,NC(=S)NCCc1ccccn1,94 to 98 °C
8,COc1cc(N)cc(OC)c1Br,149 to 151 °C
9,O=S(=O)(c1ccc(F)cc1F)N1CCNCC1,93 to 95 °C
10,Cc1ccc(-c2nnc(-c3ccc(C(=O)O)cc3)o2)cc1,250 to 252 °C
11,Cn1cnnc1Sc1ccc(N)cc1,153 to 157 °C
12,O=C(O)CSCc1cccnc1,109 to 111 °C
13,Nc1ccnn1Cc1ccncc1,219 to 221 °C
14,CCCOc1cc2c(cc1OCCC)CCNCC2,61 to 63 °C
15,Cc1ccc2nc(CCl)cc(=O)n2c1,136 to 138 °C
16,COc1ccc(C=O)cc1OCCCC#N,72 to 74 °C
17,CN(C)S(=O)(=O)c1ccc2[nH]c(=O)c(=O)[nH]c2c1,319 to 321 °C
18,COc1cccc(C(=O)CC#N)c1,84 to 86 °C
19,CCOC(=O)c1cnn(-c2ncccn2)c1N,181 to 183 °C
20,CC(C)(C)OC(=O)c1ccc(N)cc1,99 to 101 °C
21,Cc1ccc2nc(C3CC3)cc(C(=O)O)c2c1,207 to 209 °C
22,NNc1ccc(Cl)nc1,131 to 133 °C
23,O=C(O)c1cc2cccc(C(F)(F)F)c2[nH]1,179 to 181 °C
